pIC50: −log10 of the molar value.
Molecular target: T1, Glycogen phosphorylase, muscle form (Oryctolagus cuniculus, UniProt P00489)
T1 sequence (P00489 whole entry): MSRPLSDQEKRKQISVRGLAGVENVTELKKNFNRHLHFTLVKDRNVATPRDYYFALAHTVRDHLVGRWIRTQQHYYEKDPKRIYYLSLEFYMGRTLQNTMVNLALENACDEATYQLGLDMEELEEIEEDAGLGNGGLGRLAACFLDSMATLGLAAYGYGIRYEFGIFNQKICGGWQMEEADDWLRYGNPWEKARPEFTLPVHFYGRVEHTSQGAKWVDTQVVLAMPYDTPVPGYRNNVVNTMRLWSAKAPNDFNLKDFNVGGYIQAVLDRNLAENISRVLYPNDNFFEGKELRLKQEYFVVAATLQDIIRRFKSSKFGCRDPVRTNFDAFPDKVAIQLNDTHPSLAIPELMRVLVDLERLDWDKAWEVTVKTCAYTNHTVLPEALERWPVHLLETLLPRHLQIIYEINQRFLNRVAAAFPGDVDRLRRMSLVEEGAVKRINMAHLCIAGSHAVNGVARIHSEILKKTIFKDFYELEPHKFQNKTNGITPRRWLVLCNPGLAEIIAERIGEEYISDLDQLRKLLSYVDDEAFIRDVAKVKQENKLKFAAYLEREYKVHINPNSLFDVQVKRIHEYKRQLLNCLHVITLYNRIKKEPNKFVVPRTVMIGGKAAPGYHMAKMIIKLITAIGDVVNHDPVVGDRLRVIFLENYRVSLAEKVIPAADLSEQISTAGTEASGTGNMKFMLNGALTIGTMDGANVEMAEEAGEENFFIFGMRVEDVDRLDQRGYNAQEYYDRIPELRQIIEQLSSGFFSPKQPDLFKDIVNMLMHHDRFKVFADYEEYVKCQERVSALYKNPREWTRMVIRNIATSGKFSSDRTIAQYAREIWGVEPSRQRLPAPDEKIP
Assay: Inhibition of rabbit muscle glycogen phosphorylase assessed as release of phosphate from glucose-1-phosphate after 25 mins
Details: not given; call rule not given here

IC50	Structure (SMILES)
Not Active	CC(=O)O[C@H]1CC(C)(C)[C@@H]2CC[C@]3(C)[C@H](CC=C4[C@@H]5CC(C)(C)CC[C@]5(C(=O)OCc5ccccc5)CC[C@]43C)[C@@]2(C)C1
Not Active	CC1(C)CC[C@]2(C(=O)O)CC[C@]3(C)C(=CC[C@@H]4[C@@]5(C)C[C@@H](OC(=O)CCC(=O)O)CC(C)(C)[C@@H]5CC[C@]43C)[C@@H]2C1

Same assay, conditions: read-out: IC50

pIC50	Structure (SMILES)
4.82	C[C@H]1[C@H](C)CC[C@]2(C(=O)O)CC[C@]3(C)C(=CC[C@@H]4[C@@]5(C)CC[C@H](O)C(C)(C)[C@@H]5CC[C@]43C)[C@H]12 [URSOLIC ACID]
4.09	CC1(C)CC[C@]2(C(=O)OCc3ccccc3)CC[C@]3(C)C(=CC[C@@H]4[C@@]5(C)C[C@@H](OC(=O)CCC(=O)O)CC(C)(C)[C@@H]5CC[C@]43C)[C@@H]2C1
4.64	C=CCOC(=O)[C@]12CCC(C)(C)C[C@H]1C1=CC[C@@H]3[C@@]4(C)C[C@H](O)CC(C)(C)[C@@H]4CC[C@@]3(C)[C@]1(C)CC2
5.07	CC1(C)CC[C@]2(C(=O)O)CC[C@]3(C)C(=CC[C@@H]4[C@@]5(C)C[C@@H](O)CC(C)(C)[C@@H]5CC[C@]43C)[C@@H]2C1
4.43	CC1(C)CC[C@]2(C(=O)OCCCBr)CC[C@]3(C)C(=CC[C@@H]4[C@@]5(C)C[C@H](O)CC(C)(C)[C@@H]5CC[C@]43C)[C@@H]2C1
4.56	CCCOC(=O)[C@]12CCC(C)(C)C[C@H]1C1=CC[C@@H]3[C@@]4(C)C[C@H](O)CC(C)(C)[C@@H]4CC[C@@]3(C)[C@]1(C)CC2
4.39	CC1(C)CC[C@]2(C(=O)O)CC[C@]3(C)C(=CC[C@@H]4[C@@]5(C)C[C@@H](OC(=O)c6ccccc6)CC(C)(C)[C@@H]5CC[C@]43C)[C@@H]2C1
5.26	C[C@@H]1[C@H]2C3=CC[C@@H]4[C@@]5(C)C[C@H](O)CC(C)(C)[C@@H]5CC[C@@]4(C)[C@]3(C)CC[C@@]2(C(=O)O)CC[C@@H]1C
4.69	C[C@H]1[C@H](C)CC[C@]2(C(=O)OCc3ccccc3)CC[C@]3(C)C(=CC[C@@H]4[C@@]5(C)C/C(=N\O)CC(C)(C)[C@@H]5CC[C@]43C)[C@H]12
4.31	CC1(C)CC[C@]2(C(=O)OCCCCBr)CC[C@]3(C)C(=CC[C@@H]4[C@@]5(C)C[C@H](O)CC(C)(C)[C@@H]5CC[C@]43C)[C@@H]2C1
4.82	CCOC(=O)[C@]12CCC(C)(C)C[C@H]1C1=CC[C@@H]3[C@@]4(C)C[C@H](O)CC(C)(C)[C@@H]4CC[C@@]3(C)[C@]1(C)CC2
5.46	CC1(C)CC[C@]2(C(=O)O)CC[C@]3(C)C(=CC[C@@H]4[C@@]5(C)C[C@H](O)CC(C)(C)[C@@H]5CC[C@]43C)[C@@H]2C1
4.55	COC(=O)[C@]12CCC(C)(C)C[C@H]1C1=CC[C@@H]3[C@@]4(C)C[C@H](O)CC(C)(C)[C@@H]4CC[C@@]3(C)[C@]1(C)CC2
5.92	C[C@H]1[C@H](C)CC[C@]2(C(=O)O)CC[C@]3(C)C(=CC[C@@H]4[C@@]5(C)C[C@@H](O)CC(C)(C)[C@@H]5CC[C@]43C)[C@H]12
5.49	CC1(C)CC[C@]2(C(=O)OCc3ccccc3)CC[C@]3(C)C(=CC[C@@H]4[C@@]5(C)CC(=O)CC(C)(C)[C@@H]5CC[C@]43C)[C@@H]2C1
3.97	CCCC(=O)O[C@H]1CC(C)(C)[C@@H]2CC[C@]3(C)[C@H](CC=C4[C@@H]5CC(C)(C)CC[C@]5(C(=O)OCc5ccccc5)CC[C@]43C)[C@@]2(C)C1
4.62	C[C@H]1[C@H](C)CC[C@]2(C(=O)OCc3ccccc3)CC[C@]3(C)C(=CC[C@@H]4[C@@]5(C)CC(=O)CC(C)(C)[C@@H]5CC[C@]43C)[C@H]12

pIC50	Structure (SMILES)
3.92	CCC(=O)O[C@H]1CC(C)(C)[C@@H]2CC[C@]3(C)[C@H](CC=C4[C@@H]5CC(C)(C)CC[C@]5(C(=O)OCc5ccccc5)CC[C@]43C)[C@@]2(C)C1
4.37	CC(=O)O[C@H]1CC(C)(C)[C@@H]2CC[C@]3(C)[C@H](CC=C4[C@@H]5CC(C)(C)CC[C@]5(C(=O)O)CC[C@]43C)[C@@]2(C)C1
5.38	CC1(C)CC[C@]2(C(=O)OCc3ccccc3)CC[C@]3(C)C(=CC[C@@H]4[C@@]5(C)C[C@H](O)CC(C)(C)[C@@H]5CC[C@]43C)[C@@H]2C1
4.65	CC1CC[C@]2(C(=O)OCc3ccccc3)CC[C@]3(C)C(=CC[C@@H]4[C@@]5(C)C[C@H](O)CC(C)(C)[C@@H]5CC[C@]43C)[C@@H]2[C@H]1C (stereo partly specified)
4.88	CC1(C)CC[C@]2(C(=O)O)CC[C@]3(C)C(=CC[C@@H]4[C@@]5(C)C/C(=N\O)CC(C)(C)[C@@H]5CC[C@]43C)[C@@H]2C1
4.54	C[C@H]1[C@H](C)CC[C@]2(C(=O)O)CC[C@]3(C)C(=CC[C@@H]4[C@@]5(C)CC(=O)CC(C)(C)[C@@H]5CC[C@]43C)[C@H]12
4.12	CCCC(=O)O[C@H]1CC(C)(C)[C@@H]2CC[C@]3(C)[C@H](CC=C4[C@@H]5CC(C)(C)CC[C@]5(C(=O)O)CC[C@]43C)[C@@]2(C)C1
4.83	C[C@H]1[C@H](C)CC[C@]2(C(=O)O)CC[C@]3(C)C(=CC[C@@H]4[C@@]5(C)C/C(=N\O)CC(C)(C)[C@@H]5CC[C@]43C)[C@H]12
4.10	CCC(=O)O[C@H]1CC(C)(C)[C@@H]2CC[C@]3(C)[C@H](CC=C4[C@@H]5CC(C)(C)CC[C@]5(C(=O)O)CC[C@]43C)[C@@]2(C)C1
4.83	CC1(C)CC[C@]2(C(=O)O)CC[C@]3(C)C(=CC[C@@H]4[C@@]5(C)CC(=O)CC(C)(C)[C@@H]5CC[C@]43C)[C@@H]2C1
4.60	CC1(C)CC[C@]2(C(=O)OCCBr)CC[C@]3(C)C(=CC[C@@H]4[C@@]5(C)C[C@H](O)CC(C)(C)[C@@H]5CC[C@]43C)[C@@H]2C1
4.79	CC1(C)CC[C@]2(C(=O)OCc3ccccc3)CC[C@]3(C)C(=CC[C@@H]4[C@@]5(C)C/C(=N\O)CC(C)(C)[C@@H]5CC[C@]43C)[C@@H]2C1
4.32	CC1(C)CC[C@]2(C(=O)OCc3ccccc3)CC[C@]3(C)C(=CC[C@@H]4[C@@]5(C)C[C@@H](OC(=O)c6ccccc6)CC(C)(C)[C@@H]5CC[C@]43C)[C@@H]2C1
4.86	CCCCOC(=O)[C@]12CCC(C)(C)C[C@H]1C1=CC[C@@H]3[C@@]4(C)C[C@H](O)CC(C)(C)[C@@H]4CC[C@@]3(C)[C@]1(C)CC2
5.25	C[C@@H]1[C@H]2C3=CC[C@@H]4[C@@]5(C)C[C@@H](O)CC(C)(C)[C@@H]5CC[C@@]4(C)[C@]3(C)CC[C@@]2(C(=O)OCc2ccccc2)CCC1(C)C
4.65	CCOC(=O)COC(=O)[C@]12CCC(C)(C)C[C@H]1C1=CC[C@@H]3[C@@]4(C)C[C@H](O)CC(C)(C)[C@@H]4CC[C@@]3(C)[C@]1(C)CC2
4.25	C[C@H]1[C@H](C)CC[C@]2(C(=O)OCc3ccccc3)CC[C@]3(C)C(=CC[C@@H]4[C@@]5(C)C[C@@H](O)CC(C)(C)[C@@H]5CC[C@]43C)[C@H]12
